# From PMC11603275, “Synthesis and Antimicrobial Evaluation of New 1,2,4-Triazolo[1,5-a]pyrimidine-Based Derivatives as Dual Inhibitors of Bacterial DNA Gyrase and DHFR” (ACS Omega, 2024)
# Like-named read-outs stand apart in the source and are kept apart here.
# How the values were obtained:
# [1] = tested on: B. subtilis; test: Minimum bactericidal concentration (MBC) assay; assay type: cell-based, Bacillus subtilis
# Text: (§1) The MBC differs from the MIC. […] Unlike the MBC, which leads to mortality, the MIC hinders bacterial growth without causing death.[41] The common expression for MBC is MBC50, signifying the antibiotic concentration that eliminates 50% of the initial bacterial population.[42]
# [2] = tested on: Gram-positive bacteria; test: MBC summarised over Gram-positive bacteria; assay type: cell-based
# Text: as §1
# [3] = tested on: B. subtilis; test: Modified disk diffusion, inhibition zone; details: B. subtilis (G+)
# [4] = tested on: S. aureus; test: Minimum bactericidal concentration (MBC) assay; assay type: cell-based, Staphylococcus aureus
# Text: as §1
# [5] = tested on: B. subtilis; test: MIC assay, 2-fold serial dilution in 96-well microtiter plate; assay type: cell-based, Bacillus subtilis (ATCC 6051)
# Experimental: (§2) The outcomes of this in vitro assay test align with the results of the antimicrobial sensitivity test.
# (§3) Appendix A (Supplementary File) provides experimental details.
# (§4) In 96-well microtiter plates and […] of fresh bacterial culture of a single McFarland unit overnight, a double serial dilution of each compound […] in sterile standard saline were prepared to every single source well. […] The plates were incubated at 37 °C overnight. As an indicator of bacterial growth, […] of p-iodonitrotetrazolium violet (INT) was added to each well and incubated at 37 °C for 30 min. […] The colorless tetrazolidium salt acts as an electron accepter and is reduced to a red colored formazan product by biological activity organisms. Where bacterial growth was inhibited, the solution in the well remained clear after incubation with INT.
# [6] = tested on: P. aeruginosa; test: Modified disk diffusion, inhibition zone; details: P. aeruginosa (G-)
# [7] = tested on: E. coli; test: Minimum bactericidal concentration (MBC) assay; assay type: cell-based, Escherichia coli
# Text: as §1
# [8] = tested on: Gram-positive and Gram-negative bacteria (B. subtilis, S. aureus, E. coli, P. aeruginosa); test: Disk diffusion, inhibition zones summarised over the tested bacterial strains; details: over the four tested bacterial strains
# [9] = tested on: S. aureus; test: MIC assay, 2-fold serial dilution in 96-well microtiter plate; assay type: cell-based, Staphylococcus aureus (ATCC 12600); details: Staphylococcus aureus, read-out: MIC
# Experimental: as §2, §3, §4
# [10] = tested on: tested bacteria; test: MIC summarised over the tested bacteria (abstract); assay type: cell-based; details: read-out: MIC values
# Experimental: as §2, §4
# [11] = tested on: E. coli; test: Modified disk diffusion, inhibition zone; details: E. coli (G-)
# [12] = tested on: E. coli; test: MIC assay, 2-fold serial dilution in 96-well microtiter plate; assay type: cell-based, Escherichia coli (ATCC 11775); details: Escherichia coli, read-out: MIC
# Experimental: as §2, §3, §4
# [13] = tested on: P. aeruginosa; test: as above; assay type: cell-based, Pseudomonas aeuroginosa (ATCC 10145)
# Experimental: as §2, §3, §4
# [14] = tested on: P. aeruginosa; test: Minimum bactericidal concentration (MBC) assay; assay type: cell-based, Pseudomonas aeuroginosa
# Text: as §1
# [15] = molecular target: DNA gyrase; set-up: method as in PMID 31711767; details: cited from earlier work
smiles,measurement,setting,value
"O=C(O)c1cn(C2CC2)c2cc(N3CCNCC3)c(F)cc2c1=O [Ciprofloxacin, reference compound]",MBC,[1],0.019 ± 0.001 µM
same,MBC,"[1]; Bacillus subtilis, read-out: MBC",0.019 µM
same,MBC,[2],0.019 to 0.045 µM
same,Inhibition Zone (IZ) Diameter,[3],40 mm/mL
same,MBC,[4],0.045 ± 0.002 µM
same,MBC,"[4]; Staphylococcus aureus, read-out: MBC",0.046 µM
same,MIC,[5],0.01 ± 0.001 µM
same,MIC,"[5]; Bacillus subtilis, read-out: MIC",0.01 µM
same,Inhibition Zone (IZ) Diameter,[6],40 mm/mL
same,MBC,[7],0.09 ± 0.006 µM
same,MBC,"[7]; Escherichia coli, read-out: MBC",0.09 µM
same,Inhibition Zone (IZ) Diameter,[8],40 mm
same,MIC,[9],0.03 ± 0.002 µM
same,MIC,[10],10 to 90 µM
same,Inhibition Zone (IZ) Diameter,[11],40 mm/mL
same,MIC,[12],0.06 ± 0.004 µM
same,MIC,[13],0.06 ± 0.005 µM
same,MIC,"[13]; Pseudomonas aeruginosa, read-out: MIC",0.06 µM
same,MBC,[14],0.09 ± 0.006 µM
same,MBC,"[14]; Pseudomonas aeruginosa, read-out: MBC",0.09 µM
O=C(NNC(=O)c1c[nH]c2ncnn2c1=O)c1ccccc1 [Compound IV],IC50,[15],680 nM
